Consider four compounds from patent publication US6599937B1, “Unsaturated oxyalkylene esters and uses thereof” (Beacon Laboratories, Inc., priority 1997, dated 2003).

For one assay, the system named is LOX IMVI. Put plainly: SRB assay, inhibition of cancer cell proliferation, LOX IMVI. The format is cell-based. The procedure: (§1) The inhibition of cell proliferation was measured in the indicated cancer cell lines using the sulforhodamine B (SRB) assay as described by Monks et al., 1991, J. Natl. Can. Inst. 83:757-766. The SRB assay is used to screen for anti-cancer drugs. […] The table provides the dosage of each compound (in mM) which inhibited fifty percent (IC50) or ninety percent (IC90) of proliferation when calculated using the Chou Analysis' Median Effective Dose equation.
Background: In SRB staining, fixed cells bind dye roughly in proportion to their protein.

The subject of the next assay is HL-60. Put plainly: SRB assay, inhibition of cancer cell proliferation, HL-60. In kind it is cell-based, human. The method, then: (§2) Human promyelocytic leukemia cells (HL-60), human pancreatic carcinoma cells (PaCa-2) and human breast adenocarcinoma cells, pleural effusion cells (MCF-7) can be cultured as follows. Cells are grown in RPMI media with 10% FCS, supplemented with 2 mM glutamine and incubated at 37° C. in a humidified 5% CO2 incubator. Alternatively, cells can be grown in any other appropriate growth medium and conditions which supports the growth of the cell line under investigation. Viability can be determined by trypan blue exclusion. Cells are exposed to a test compound, cultures are harvested at various time points following treatment and stained with trypan blue. The inhibition of cell proliferation was measured in the indicated cancer cell lines using the sulforhodamine B (SRB) assay as described by Monks et al., 1991, J. Natl. Can. Inst. 83:757-766. The SRB assay is used to screen for anti-cancer drugs. […] The table provides the dosage of each compound (in mM) which inhibited fifty percent (IC50) or ninety percent (IC90) of proliferation when calculated using the Chou Analysis' Median Effective Dose equation.

The test system of a further assay is MCF7. Put plainly: SRB assay, inhibition of cancer cell proliferation, MCF7. The format is cell-based, human. The method, then: as §2
A further assay concerns CFPAC. Description: SRB assay, inhibition of cancer cell proliferation, CFPAC. In kind it is cell-based. The method, then:
as §1

The test system of a further assay is NCI-H522. Description: SRB assay, inhibition of cancer cell proliferation, NCI-H522. The format is cell-based. The procedure:
as §1

The subject of another assay is NCI-H23. Put plainly: SRB assay, inhibition of cancer cell proliferation, NCI-H23. In kind it is cell-based. The method, then: as §1
The test system of the next assay is HT29. Description: SRB assay, inhibition of cancer cell proliferation, HT29. In kind it is cell-based. The procedure: as §1
The test system of a further assay is OVCAR-5. Put plainly: SRB assay, inhibition of cancer cell proliferation, OVCAR-5. In kind it is cell-based. The procedure:
as §1

The next assay has as its system SF-295. Put plainly: SRB assay, inhibition of cancer cell proliferation, SF-295. The format is cell-based. The procedure: as §1
The subject of the next assay is PC-3. Description: SRB assay, inhibition of cancer cell proliferation, PC-3. The format is cell-based, human. The procedure: as §1
In a further assay the test system is HL-60 cells. The conditions noted are these: HL-60 cells cultured 3 days. The procedure:
Cancer cell differentiation was evaluated in a human leukemia cell line by changes in expression of myelocytic maturation marker CD11b. The level of CD11b was measured on HL-60 cells by flow cytometry using a monoclonal antibody (MAb) against CD11b in a standard indirect immunofluorescence assay. Cells were cultured for 3 days with media or the indicated concentration of DiMeOCOMB. Cultured cells were collected by centrifugation, resuspended at 10^6 cells per 20μ RPMI+10% FCS and incubated with MAb for 30 min at […]. The cells were washed twice in cold PBS+[…] FCS and incubated with a 1:20 dilution of FITC-conjugated F(ab′)^2 fragment of rabbit anti-mouse IgG for 20-30 min at […]. in the dark. After washing the cells twice in cold PBS+10% FCS, the flow cytometry was performed.

Where [1] appears, read: Homo sapiens, LOX IMVI cell line, SRB assay, Chou Median Effective Dose equation, read-out: IC50.
[2] abbreviates: Homo sapiens, LOX IMVI cell line, SRB assay, Chou Median Effective Dose equation, read-out: IC90.
[3] abbreviates: Homo sapiens, HL-60 cell line, SRB assay, Chou Median Effective Dose equation, read-out: IC50.
The mark [4] stands for this setting: Homo sapiens, HL-60 cell line, SRB assay, Chou Median Effective Dose equation, read-out: IC90.
The mark [5] stands for this setting: Homo sapiens, MCF7 cell line, SRB assay, Chou Median Effective Dose equation, read-out: IC50.
[6] abbreviates: Homo sapiens, MCF7 cell line, SRB assay, Chou Median Effective Dose equation, read-out: IC90.
The mark [7] stands for this setting: CFPAC cell line, SRB assay, Chou Median Effective Dose equation, read-out: IC50.
[8] abbreviates: CFPAC cell line, SRB assay, Chou Median Effective Dose equation, read-out: IC90.
The mark [9] stands for this setting: Homo sapiens, NCI-H522 cell line, SRB assay, Chou Median Effective Dose equation, read-out: IC50.
Setting [10] is: Homo sapiens, NCI-H522 cell line, SRB assay, Chou Median Effective Dose equation, read-out: IC90.
[11] abbreviates: Homo sapiens, NCI-H23 cell line, SRB assay, Chou Median Effective Dose equation, read-out: IC50.
[12] abbreviates: Homo sapiens, NCI-H23 cell line, SRB assay, Chou Median Effective Dose equation, read-out: IC90.
The mark [13] stands for this setting: Homo sapiens, HT-29, HT29 cell line, SRB assay, Chou Median Effective Dose equation, read-out: IC50.
The mark [14] stands for this setting: Homo sapiens, HT-29, HT29 cell line, SRB assay, Chou Median Effective Dose equation, read-out: IC90.
Where [15] appears, read: Homo sapiens, OVCAR-5 cell line, SRB assay, Chou Median Effective Dose equation, read-out: IC50.
The mark [16] stands for this setting: Homo sapiens, OVCAR-5 cell line, SRB assay, Chou Median Effective Dose equation, read-out: IC90.
The mark [17] stands for this setting: Homo sapiens, SF-295 cell line, SRB assay, Chou Median Effective Dose equation, read-out: IC50.
The mark [18] stands for this setting: Homo sapiens, SF-295 cell line, SRB assay, Chou Median Effective Dose equation, read-out: IC90.
Where [19] appears, read: Homo sapiens, PC-3 cell line, SRB assay, Chou Median Effective Dose equation, read-out: IC50.
[20] abbreviates: Homo sapiens, PC-3 cell line, SRB assay, Chou Median Effective Dose equation, read-out: IC90.

Where two headings read alike, the source gives them in different places. Where only a bound is given, the exact number is not on record here.

For the compound `CCCC(=O)OCOC(=O)C=Cc1ccccc1` [COMB, Cinnamoyloxymethyl Butyrate], the IC50 – broadly, the concentration that inhibits the measured activity by half – with LOX IMVI (setting [1]) stood at 197 µM; in the assay on HL-60 (setting [3]), 443 µM; with MCF7 (setting [5]), 196 µM; in the assay with CFPAC (setting [7]), 150 µM; in the assay on NCI-H522 (setting [9]), 189 µM; with NCI-H23 (setting [11]) it was 182 µM. Moreover, the IC50 with HT29 (setting [13]) was 349 µM; in the assay on OVCAR-5 (setting [15]) it was 367 µM; with SF-295 (setting [17]), 197 µM; in the assay on PC-3 (setting [19]), 203 µM. For the same compound, the IC90 – broadly, the concentration at which the effect reaches the 90% level – with LOX IMVI (setting [2]) is 1910 µM; in the assay with HL-60 (setting [4]) it was > 4000 µM; in the assay with MCF7 (setting [6]), > 4000 µM; in the assay on CFPAC (setting [8]), 237 µM; in the assay with NCI-H522 (setting [10]), 249 µM; with NCI-H23 (setting [12]) it was 249 µM. In addition, the IC90 was 492 µM with HT29 (setting [14]), 500 µM in the assay on OVCAR-5 (setting [16]), > 4000 µM in the assay with SF-295 (setting [18]) and > 4000 µM with PC-3 (setting [20]).

Regarding `CCCC(=O)OCOC(=O)C=Cc1ccc(OC)c(OC)c1` [DiMeOCOMB, 3,4-Dimethyoxycinnamoyloxymethyl Butyrate], the IC50 with LOX IMVI (LOX IMVI cell line, SRB assay, Chou Median Effective Dose equation, read-out: IC50) came to 772 µM; in the assay on HL-60 (HL-60 cell line, SRB assay, Chou Median Effective Dose equation, read-out: IC50), 203 µM; with MCF7 (MCF7 cell line, SRB assay, Chou Median Effective Dose equation, read-out: IC50), 301 µM; in the assay with CFPAC (setting [7]), 308 µM; in the assay with NCI-H522 (NCI-H522 cell line, SRB assay, Chou Median Effective Dose equation, read-out: IC50) it was 752 µM; in the assay on NCI-H23 (NCI-H23 cell line, SRB assay, Chou Median Effective Dose equation, read-out: IC50) it was 785 µM. In addition, the IC50 with HT29 (HT29 cell line, SRB assay, Chou Median Effective Dose equation, read-out: IC50) is 406 µM; with OVCAR-5 (OVCAR-5 cell line, SRB assay, Chou Median Effective Dose equation, read-out: IC50) it was 1460 µM; in the assay with SF-295 (SF-295 cell line, SRB assay, Chou Median Effective Dose equation, read-out: IC50) it was 764 µM; with PC-3 (PC-3 cell line, SRB assay, Chou Median Effective Dose equation, read-out: IC50) it was 1440 µM. Besides, the IC90 with LOX IMVI (LOX IMVI cell line, SRB assay, Chou Median Effective Dose equation, read-out: IC90) is 978 µM; in the assay on HL-60 (HL-60 cell line, SRB assay, Chou Median Effective Dose equation, read-out: IC90), 248 µM; in the assay with MCF7 (MCF7 cell line, SRB assay, Chou Median Effective Dose equation, read-out: IC90), 466 µM; with CFPAC (setting [8]), 3570 µM; in the assay with NCI-H522 (NCI-H522 cell line, SRB assay, Chou Median Effective Dose equation, read-out: IC90), 1370 µM; with NCI-H23 (NCI-H23 cell line, SRB assay, Chou Median Effective Dose equation, read-out: IC90), > 4000 µM. For the same compound, the IC90 amounted to 798 µM in the assay on HT29 (HT29 cell line, SRB assay, Chou Median Effective Dose equation, read-out: IC90); 1890 µM in the assay on OVCAR-5 (OVCAR-5 cell line, SRB assay, Chou Median Effective Dose equation, read-out: IC90); 977 µM with SF-295 (SF-295 cell line, SRB assay, Chou Median Effective Dose equation, read-out: IC90); 1870 µM in the assay on PC-3 (PC-3 cell line, SRB assay, Chou Median Effective Dose equation, read-out: IC90). For the same compound, the “% CD11b Cells” value with HL-60 cells (concentration 50 μM (media control 12.2)) came out at 87.5%; in the assay with HL-60 cells (concentration 100 μM (media control 12.2)), 88.6%; with HL-60 cells (concentration 203 μM (media control 12.2)) it was 90.4%.

Turning to `CC(=Cc1ccccc1)C(=O)O` [MeCA, α-methylcinnamic acid, reference compound], the IC50 was 3360 µM in the assay with LOX IMVI (setting [1]); 2600 µM with HL-60 (setting [3]); > 4000 µM in the assay on MCF7 (setting [5]); 1940 µM in the assay with CFPAC (setting [7]); 1980 µM in the assay on NCI-H522 (setting [9]); 3270 µM with NCI-H23 (setting [11]). For the same compound, the IC50 with HT29 (setting [13]) was 3960 µM; with OVCAR-5 (setting [15]) it was 3730 µM; in the assay on SF-295 (setting [17]) it was > 4000 µM; with PC-3 (setting [19]), > 4000 µM. The IC90 with LOX IMVI (setting [2]) was > 4000 µM; in the assay with HL-60 (setting [4]) it was > 4000 µM; in the assay with MCF7 (setting [6]), > 4000 µM; in the assay with CFPAC (setting [8]) it was > 4000 µM; in the assay with NCI-H522 (setting [10]) it was 3820 µM; in the assay on NCI-H23 (setting [12]) it was > 4000 µM. For the same compound, the IC90 with HT29 (setting [14]), in the assay on OVCAR-5 (setting [16]), in the assay with SF-295 (setting [18]) and in the assay with PC-3 (setting [20]) was > 4000 µM each time.

Regarding `CC(Cc1ccccc1)C(=O)O` (centres unmarked) [MePPA, 2-methyl-3-phenylpropionic acid, reference compound], the IC50 is > 4000 µM with LOX IMVI (Homo sapiens, LOX IMVI); > 4000 µM with HL-60 (Homo sapiens, HL-60); > 4000 µM with MCF7 (Homo sapiens, MCF7); 3540 µM with CFPAC; > 4000 µM in the assay with NCI-H522 (Homo sapiens, NCI-H522); > 4000 µM in the assay with NCI-H23 (Homo sapiens, NCI-H23). Besides, the IC50 in the assay with HT29 (Homo sapiens, HT-29) was > 4000 µM; with OVCAR-5 (Homo sapiens, OVCAR-5) it was > 4000 µM; in the assay with SF-295 (Homo sapiens, SF-295), > 4000 µM; in the assay with PC-3 (Homo sapiens, PC-3) it was > 4000 µM. Moreover, the IC90 is > 4000 µM with LOX IMVI (Homo sapiens, LOX IMVI); > 4000 µM in the assay with HL-60 (Homo sapiens, HL-60); > 4000 µM with MCF7 (Homo sapiens, MCF7); > 4000 µM in the assay on CFPAC; > 4000 µM in the assay on NCI-H522 (Homo sapiens, NCI-H522); > 4000 µM with NCI-H23 (Homo sapiens, NCI-H23). The IC90 was > 4000 µM with HT29 (Homo sapiens, HT-29); > 4000 µM in the assay with OVCAR-5 (Homo sapiens, OVCAR-5); > 4000 µM in the assay with SF-295 (Homo sapiens, SF-295); > 4000 µM with PC-3 (Homo sapiens, PC-3).
